Results as given in US10434086B2, “Combination therapies with curaxins” (Incuron, Inc., priority 2014, dated 2019).
Where two headings read alike, the source gives them in different places.

Key:
[1] = tested on: HepG2 hepatocellular carcinoma tumors; assay: HepG2 (sub-dose CBL0137) study; format: in vivo, nude mice
From the text: (§1) Seventy and sixty female athymic nude mice were obtained for each H1975 Non-Small Cell Lung Cancer Xenograft study and split into treatment groups consisting of 10 animals per group (2 cages of 5 mice per cage).
(§2) Preparation and subcutaneous implantation of tumor pieces: HepG2 tumors (passage 2 for HepG2 study and passage 1 for HepG2 (sub-dose CLB0137) study) or Hep3B tumors (passage 1 for Hep3B study and passage 9 for Hep3B (sub-dose CLB0137) study) were propagated in athymic nude mice and harvested from euthanized mice when they reached ˜500-900 mm^3. PDA tumors (passage 6) were propagated in SCID mice (both flanks) and harvested from euthanized mice when they reached ˜600-700 mm^3 in size. Harvested tumors were transferred to a sterile Petri dish containing RPMI-10% FBS medium or D-PBS plus penicillin/streptomycin. Enough media was added to bathe the tumor in order to ensure the viability of the transplant material. Tumors were dissected into 2 mm×2 mm cubes using a sterile scalpel. Care was taken to make the pieces as uniform in size and shape as possible. Tumor pieces were implanted into recipient mice immediately after being prepared.
(§3) Tumor Size Measurements: Tumor size was measured by digital caliper in two dimensions (in mm): maximum length (l) and maximum width (w) taken perpendicular to one another. The measurements were used to calculate tumor volume according to the formula: tumor volume=(l×w2)/2 (w<l). The value obtained by this formula is also equal to the mass of the tumor in mg. Starting 2 days after tumor implantation, tumor measurements were made every 2-3 days prior to treatment initiation and then twice per week (e.g., on Day 1 (D1, the day of treatment initiation), D4, D8, D11, D15, D18, D22, D25, D29, D32, D36, D39, D43, D46, D50, D53 and D57). Tumor measurements were collected more frequently when tumor size approached the tumor size endpoint in order to prevent passing the endpoint between scheduled measurements.
(§4) Administration of test and control articles: Mice were administered the designated solutions when the mean tumor volume per treatment group was ˜45-200 mm^3.
(§5) The volume of the dosing solution administered orally or intravenously was 8 ml/kg of body weight, Intravenous injections were performed via the tail vein. Administration of drugs was done slowly without force on the syringe.
(§6) Monitoring and Sample Collection: Twice daily, mice were monitored for mortality and morbidity for the duration of the experiment. […] All abnormal observations were documented and semi-quantitative scores were assigned for “body condition,” “posture,” and “activity.” Scores of 4, 3, 2, and 1 were assigned to normal conditions (4), and slightly (3), moderately (2) and severely (1) abnormal conditions, respectively. Cages were taken to a laminar flow hood and opened in order to clearly assess mouse activity.
Data analysis: For all study groups, maximum tumor growth inhibition was calculated for Day 11, 13, or 15 (Day X). […] For each tumor, relative tumor size was calculated relative to its size on Day 1 when treatment was initiated (i.e., fold tumor growth). To calculate the maximum tumor growth inhibition for each tumor, the following equation was used: 100−(fold tumor growth drug-treated Day X/mean fold tumor growth vehicle-treated Day X)*100. Differences in tumor sizes between groups were determined using ANOVA analysis (GraphPad Prism 5 Software) where “*” refers to P=0.01-0.05 (significant), “**” refers to P=0.001-0.01 (very significant) and “***” refers to P<0.001 (extremely significant), Differences that were not statistically significant are indicated with “ns”. […] Tumor growth delay (T−C) was calculated by subtracting the median time for the control to reach the 1000 mm^3 size endpoint from that of the median time for the treated groups to reach the size endpoint.

[2] = tested on: NF-κB target genes (IL-8 and TNF); assay: Real-time PCR of NF-κB target genes (IL-8 and TNF) in HepG2 and Hep3B; format: cell-based; details: 2 h after exposure; basal and TNF-induced; both HCC cell lines
[3] = tested on: HepG2 and Hep3B; details: HepG2 only (Hep3B is p53 null)
From the text: Specifically, the Western blots monitored expression of spt16, SSRP1, p53, p21, P-ERK, ERK, Mcl-1, and GAPDH (control). Panel A corresponds to the tumor-bearing nude mice from the HepG2 study whereas Panel B corresponds to the tumor-bearing nude mice from the Hep3B study.
Specifically, the Western blots monitored the effect of drug treatment on expression of spt16, SSRP1, p53, p21, P-ERK, ERK, Mcl-1, and GAPDH (control) proteins, of which most are involved in cell cycle progression and regulation.

[4] = tested on: HepG2 hepatocellular carcinoma tumors; assay: HepG2 study: CBL0137/sorafenib against HepG2 HCC tumor engrafts; format: in vivo, nude mice
From the text: as §1, §2, §3, §4, §5, §6
Data analysis: For all study groups, maximum tumor growth inhibition was calculated for Day 11, 13, or 15 (Day X). […] For each tumor, relative tumor size was calculated relative to its size on Day 1 when treatment was initiated (i.e., fold tumor growth). To calculate the maximum tumor growth inhibition for each tumor, the following equation was used: 100−(fold tumor growth drug-treated Day X/mean fold tumor growth vehicle-treated Day X)*100. Differences in tumor sizes between groups were determined using ANOVA analysis (GraphPad Prism 5 Software) where “*” refers to P=0.01-0.05 (significant), “**” refers to P=0.001-0.01 (very significant) and “***” refers to P<0.001 (extremely significant), Differences that were not statistically significant are indicated with “ns”.

[5] = tested on: Hep3B hepatocellular carcinoma tumors; format: in vivo, nude mice
From the text: as §1, §2, §3, §4
The volume of the dosing solution administered orally or intravenously was 8 ml/kg of body weight, Intravenous injections were performed via the tail vein. […]
(§7) Monitoring and Sample Collection: Twice daily, mice were monitored for mortality and morbidity for the duration of the experiment. […] All abnormal observations were documented and semi-quantitative scores were assigned for “body condition,” “posture,” and “activity.” Scores of 4, 3, 2, and 1 were assigned to normal conditions (4), and slightly (3), moderately (2) and severely (1) abnormal conditions, respectively. […]
(§8) Data analysis: For all study groups, maximum tumor growth inhibition was calculated for Day 11, 13, or 15 (Day X). […] For each tumor, relative tumor size was calculated relative to its size on Day 1 when treatment was initiated (i.e., fold tumor growth). […] Differences in tumor sizes between groups were determined using ANOVA analysis (GraphPad Prism 5 Software) where “*” refers to P=0.01-0.05 (significant), “**” refers to P=0.001-0.01 (very significant) and “***” refers to P<0.001 (extremely significant), Differences that were not statistically significant are indicated with “ns”. […] Tumor growth delay (T−C) was calculated by subtracting the median time for the control to reach the 1000 mm^3 size endpoint from that of the median time for the treated groups to reach the size endpoint.

[6] = tested on: Hep3B hepatocellular carcinoma tumors; assay: Hep3B (sub-dose CBL0137) study; format: in vivo, nude mice
From the text: as §1, §2
Tumor Size Measurements: Tumor size was measured by digital caliper in two dimensions (in mm): maximum length (l) and maximum width (w) taken perpendicular to one another. The measurements were used to calculate tumor volume according to the formula: tumor volume=(l×w2)/2 (w<l). The value obtained by this formula is also equal to the mass of the tumor in mg. […]
as §7, §8

[7] = median time to reach tumor size endpoint, treated minus control

CNC(=O)c1cc(Oc2ccc(NC(=O)Nc3ccc(Cl)c(C(F)(F)F)c3)cc2)ccn1 [sorafenib]
mean change in tumor volume versus Day 1 ([1]; Day 13, vehicle 13.2-fold): 3.2 fold | antitumor efficacy (in words) ([1]; HepG2 (sub-dose CBL0137) study summary): effectively suppressed HepG2 tumor growth | tumor growth inhibition ([1]; between Days 1 and 13): 76% | median time to reach the tumor size endpoint ([1]; by extrapolation from exponential growth curves, vehicle 12.6 days): 29.6 days | Tumor growth delay (T−C) [1, 7]: 17 days | median survival time (MST) ([1]; sorafenib 30 mg/kg po daily, CBL0137 60 mg/kg iv Q4d, 4 weeks, vehicle 13 days): 27.5 days | expression of NF-κB target genes (IL-8 and TNF) [2]: have an effect on expression of NF-κB target genes, albeit less than CBL0137 | induction of p53 and p21 by CBL0137 (Western blot) [3]: blocked this induction | T/C % ([4]; Day 15, sorafenib 15 mg/kg po daily, CBL0137 70 mg/kg iv Q4d): 72.6% | mean change in tumor volume versus Day 1 ([4]; Day 15, sorafenib 15 mg/kg po daily, CBL0137 70 mg/kg iv Q4d, vehicle 9.0-fold): 8.4 fold | antitumor efficacy (in words) ([4]; HepG2 study summary): had no effect against HepG2 tumor growth | median survival time (MST) ([4]; HepG2 study, sorafenib 15 mg/kg po daily, CBL0137 70 mg/kg iv Q4d, 4 weeks, vehicle 15 days): 15 days | Tumor growth delay (T−C) [4, 7]: 5.65 days | tumors that grew showing some degree of regression during the course of treatment ([4]; sorafenib 15 mg/kg po daily, CBL0137 70 mg/kg iv Q4d, vehicle 0/16): 0/14 | tumor growth inhibition ([5]; Day 11): 67.2% | T/C % ([5]; Day 11, size relative to vehicle-treated tumors): 33.4% | mean change in tumor volume versus Day 1 ([5]; Day 11, vehicle 9.08-fold): 2.98 fold | antitumor efficacy (in words) ([5]; Hep3B study summary): efficacious in suppressing growth of Hep3B engrafts | median survival time (MST) ([5]; sorafenib 30 mg/kg po daily, CBL0137 60 mg/kg iv Q4d, 4 weeks, vehicle 11 days): 25 days | mean change in tumor volume versus Day 1 ([6]; Day 15, vehicle 21.0-fold): 10.2 fold | tumor growth inhibition ([6]; between Days 1 and 15): 51.4% | antitumor efficacy (in words) ([6]; dT, time to endpoint, growth delay, T/C %): stronger beneficial effect | median survival time (MST) ([6]; sorafenib 30 mg/kg po daily, CBL0137 50 mg/kg iv Q4d, 4 weeks, vehicle 14.5 days): 21.5 days
